Data on six molecules can be found in ChEMBL document CHEMBL1201862, “PubChem BioAssay data set” (2004).

Calls of active or inactive are those of the source. Where only a bound is given, the exact number is not on record here.

The nature of test [1]: nonselective inhibitors of cellular cAMP signaling, dose response, counter-screen for MC4R biased antagonist project, cell-based, TR-FRET cAMP detection (AID 602305).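 Further: U2OS cells stimulated with forskolin near its EC80 as the cAMP inducer; potency is for inhibition of forskolin-stimulated cAMP signaling.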 The test is classed as functional.
A further test addresses Melanocortin receptor 4 (Homo sapiens, UniProt P32245). Put plainly: MC4R antagonist potency on cAMP, dose response, cell-based, TR-FRET, biased antagonists (AID 602298).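 Further: antagonist potency against agonist-stimulated cAMP production.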 Format: functional.
Test [2] in a line: Counterscreen for IDE inhibitors: Luminescence-based cell-based high throughput dose response assay to identify compounds that are cytotoxic to HEK cells. [Related pubchem assays: 434962 (Primary screen (IDE inhibitors in singlicate)), 449730 (Counterscreen (Cytotoxicity in triplicate)), 435028 (Confirmation (IDE inhibitors in triplicate)) …. The test is classed as functional. As to conditions: HEK293.

The target in another test is Large T antigen (Simian virus 40, UniProt P03070). Format: functional, Betapolyomavirus macacae.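 Further: Confirmatory-stage PubChem screen for compounds that inhibit SV40 T antigen.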
The target of the next test is T1, Insulin-degrading enzyme (Homo sapiens, UniProt P14735).
T1 sequence (P14735 whole entry): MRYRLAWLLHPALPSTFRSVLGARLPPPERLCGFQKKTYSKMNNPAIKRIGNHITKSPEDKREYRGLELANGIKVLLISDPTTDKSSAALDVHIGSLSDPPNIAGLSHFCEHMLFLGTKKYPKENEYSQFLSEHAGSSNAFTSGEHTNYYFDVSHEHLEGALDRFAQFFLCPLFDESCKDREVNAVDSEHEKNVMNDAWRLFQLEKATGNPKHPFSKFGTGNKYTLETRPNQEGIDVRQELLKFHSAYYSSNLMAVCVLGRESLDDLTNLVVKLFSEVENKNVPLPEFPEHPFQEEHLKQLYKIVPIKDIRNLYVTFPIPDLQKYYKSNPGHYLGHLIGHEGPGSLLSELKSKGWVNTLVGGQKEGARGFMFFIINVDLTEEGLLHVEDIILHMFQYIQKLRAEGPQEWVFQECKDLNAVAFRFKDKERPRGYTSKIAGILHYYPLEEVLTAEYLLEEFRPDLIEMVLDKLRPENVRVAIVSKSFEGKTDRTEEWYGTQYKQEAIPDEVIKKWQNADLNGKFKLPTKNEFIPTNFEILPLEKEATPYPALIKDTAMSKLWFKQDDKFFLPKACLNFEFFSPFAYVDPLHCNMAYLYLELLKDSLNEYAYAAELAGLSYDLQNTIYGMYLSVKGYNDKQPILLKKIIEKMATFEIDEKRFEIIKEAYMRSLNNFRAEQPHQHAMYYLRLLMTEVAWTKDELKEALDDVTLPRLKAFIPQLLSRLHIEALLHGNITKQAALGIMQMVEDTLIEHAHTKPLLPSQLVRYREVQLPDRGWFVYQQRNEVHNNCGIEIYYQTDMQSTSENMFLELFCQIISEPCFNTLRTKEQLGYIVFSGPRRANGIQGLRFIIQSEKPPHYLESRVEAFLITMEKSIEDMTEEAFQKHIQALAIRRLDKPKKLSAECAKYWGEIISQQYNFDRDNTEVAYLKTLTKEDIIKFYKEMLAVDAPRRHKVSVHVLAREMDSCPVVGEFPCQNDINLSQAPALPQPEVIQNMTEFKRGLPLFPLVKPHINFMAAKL
Put plainly: Dose Response: Fluorescence polarization-based cell-based high throughput dose response assay for inhibitors of insulin-degrading enzyme (IDE). [Related pubchem assays: 434962 (Primary screen (IDE inhibitors in singlicate)), 449730 (Counterscreen (Cytotoxicity in triplicate)), 435028 (Confirmation (IDE inhibitors in triplicate)), 434984 (Summary …. Format: functional.

Test [3] has as its target T2, Mitochondrial peptide methionine sulfoxide reductase (Bos taurus, UniProt P54149).
T2 sequence (P54149 whole entry): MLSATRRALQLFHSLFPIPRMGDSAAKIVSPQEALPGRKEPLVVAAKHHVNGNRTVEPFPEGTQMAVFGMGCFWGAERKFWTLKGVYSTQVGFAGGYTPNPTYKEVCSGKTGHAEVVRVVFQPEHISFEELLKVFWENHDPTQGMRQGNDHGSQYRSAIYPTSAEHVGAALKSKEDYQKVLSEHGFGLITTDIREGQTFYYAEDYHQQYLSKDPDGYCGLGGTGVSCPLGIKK
The test is described as follows: Absorbance-based biochemical high throughput dose response assay for activators of Methionine sulfoxide reductase A (MsrA). Format: functional.

Test [4] has as its target Glucose-6-phosphate 1-dehydrogenase (Homo sapiens, UniProt P11413). The test is described as follows: human G6PD enzyme inhibitors, dose response, selectivity assay for P. falciparum G6PD inhibitor project, biochemical, fluorescence (AID 504792). Format: functional.
The target of test [5] is Potassium voltage-gated channel subfamily KQT member 2 (Rattus norvegicus, UniProt O88943). The test is described as follows: KCNQ2 potassium channel inhibitors, dose response, cell-based, automated electrophysiology, set II, rat KCNQ2 (AID 588637). The test is classed as functional.
For test [6], the target named is Platelet-derived growth factor receptor beta (Homo sapiens, UniProt P09619). Format: functional.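 Further: value comes from a kinome panel, with PDGFRB tested as one panel member.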
Test [7] addresses cAMP-dependent protein kinase catalytic subunit alpha (Homo sapiens, UniProt P17612). Format: functional.
The target of test [8] is Protein kinase C theta type (Homo sapiens, UniProt Q04759). The test is described as follows: Navigating the Kinome. Panel member name: PRKCQ. The test is classed as functional.
The target in test [9] is T3, Tyrosine-protein kinase receptor TYRO3 (Homo sapiens, UniProt Q06418).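 Further: TYRO3 value obtained as one member of a kinome-wide profiling panel.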
T3 sequence (Q06418 whole entry): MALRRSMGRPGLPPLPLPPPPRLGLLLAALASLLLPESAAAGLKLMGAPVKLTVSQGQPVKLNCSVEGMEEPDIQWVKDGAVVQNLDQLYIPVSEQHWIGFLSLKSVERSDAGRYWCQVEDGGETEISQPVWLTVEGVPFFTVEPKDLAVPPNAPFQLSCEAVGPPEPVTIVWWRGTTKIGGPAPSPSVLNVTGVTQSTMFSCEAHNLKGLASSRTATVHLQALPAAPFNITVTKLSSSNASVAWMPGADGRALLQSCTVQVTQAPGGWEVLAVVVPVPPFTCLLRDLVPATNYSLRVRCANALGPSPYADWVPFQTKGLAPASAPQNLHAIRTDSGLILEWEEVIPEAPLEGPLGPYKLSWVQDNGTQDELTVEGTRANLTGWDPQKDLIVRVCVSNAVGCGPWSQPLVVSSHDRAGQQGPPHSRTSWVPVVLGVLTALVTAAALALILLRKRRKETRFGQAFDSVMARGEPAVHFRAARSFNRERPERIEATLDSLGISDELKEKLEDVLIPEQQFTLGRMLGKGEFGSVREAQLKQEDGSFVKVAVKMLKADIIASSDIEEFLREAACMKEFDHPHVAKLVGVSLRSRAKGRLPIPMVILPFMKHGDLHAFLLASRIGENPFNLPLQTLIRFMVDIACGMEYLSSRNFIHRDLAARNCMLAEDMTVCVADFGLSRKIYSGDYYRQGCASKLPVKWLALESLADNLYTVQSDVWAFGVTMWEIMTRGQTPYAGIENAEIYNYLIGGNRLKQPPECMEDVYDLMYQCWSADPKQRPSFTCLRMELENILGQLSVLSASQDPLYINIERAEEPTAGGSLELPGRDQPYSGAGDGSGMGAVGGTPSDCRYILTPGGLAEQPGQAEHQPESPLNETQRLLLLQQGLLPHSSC
Format: functional.

Test [10] has as its target Dual specificity protein kinase CLK4 (Homo sapiens, UniProt Q9HAZ1). The test is classed as functional.
Test [11] addresses Cyclin-dependent kinase 19 (Homo sapiens, UniProt Q9BWU1). The test is described as follows: Navigating the Kinome. Panel member name: CDC2L6. Format: functional.
Test [12] concerns the target Dual specificity tyrosine-phosphorylation-regulated kinase 1A (Homo sapiens, UniProt Q13627). Format: functional.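 Further: measured against DYRK1A as one member of a broad kinome profiling panel.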
A further test has as its target T4, Aurora kinase A (Homo sapiens, UniProt O14965).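 Further: value from the Navigating the Kinome kinase panel profiling, panel entry STK6.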
T4 sequence (O14965 whole entry): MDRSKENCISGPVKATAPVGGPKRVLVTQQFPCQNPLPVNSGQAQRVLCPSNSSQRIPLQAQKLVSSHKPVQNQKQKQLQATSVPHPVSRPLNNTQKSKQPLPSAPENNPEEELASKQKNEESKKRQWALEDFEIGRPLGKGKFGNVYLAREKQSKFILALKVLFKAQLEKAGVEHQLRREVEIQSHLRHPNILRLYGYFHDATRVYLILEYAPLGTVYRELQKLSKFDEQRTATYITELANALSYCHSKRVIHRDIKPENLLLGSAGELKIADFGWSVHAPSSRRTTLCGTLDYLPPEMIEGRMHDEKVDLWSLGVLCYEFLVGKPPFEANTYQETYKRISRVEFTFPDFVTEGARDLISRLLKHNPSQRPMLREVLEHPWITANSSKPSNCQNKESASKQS
The test is classed as functional.

Test [13] concerns the target Macrophage colony-stimulating factor 1 receptor (Homo sapiens, UniProt P07333). Format: functional.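 Further: value comes from the Navigating the Kinome screening panel, CSF1R member.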
Test [14] concerns the target BDNF/NT-3 growth factors receptor (Homo sapiens, UniProt Q16620). The test is classed as functional.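 Further: NTRK2 measured as one member of a broad kinome-wide kinase profiling panel.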
Test [15] has as its target Vascular endothelial growth factor receptor 2 (Homo sapiens, UniProt P35968). The test is classed as functional.
Test [16] concerns the target Cyclin-dependent kinase 9 (Homo sapiens, UniProt P50750). The test is classed as functional.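 Further: value from the CDK9 entry of a kinome-spanning kinase panel.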
Test [17] has as its target Dual specificity tyrosine-phosphorylation-regulated kinase 1B (Homo sapiens, UniProt Q9Y463). The test is described as follows: Navigating the Kinome. Panel member name: DYRK1B. The test is classed as functional.
Test [18] addresses Dual specificity mitogen-activated protein kinase kinase 1 (Homo sapiens, UniProt Q02750). Put plainly: Navigating the Kinome. Panel member name: MAP2K1. Format: functional.
Test [19] has as its target Leukocyte tyrosine kinase receptor (Homo sapiens, UniProt P29376). Put plainly: Navigating the Kinome. Panel member name: LTK. The test is classed as functional.
Test [20] deals with Macrophage-stimulating protein receptor (Homo sapiens, UniProt Q04912). Put plainly: Navigating the Kinome. Panel member name: MST1R. The test is classed as functional.
The target of another test is Focal adhesion kinase 1 (Homo sapiens, UniProt Q05397). The test is classed as functional.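 Further: measured as one member of a kinome panel.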
The target in test [21] is Platelet-derived growth factor receptor alpha (Homo sapiens, UniProt P16234). The test is described as follows: Navigating the Kinome. Panel member name: PDGFRA. Format: functional.
The target of test [22] is Dual specificity protein kinase CLK2 (Homo sapiens, UniProt P49760). Format: functional.
In test [23] the target is Dual specificity mitogen-activated protein kinase kinase 2 (Homo sapiens, UniProt P36507). The test is described as follows: Navigating the Kinome. Panel member name: MAP2K2. Format: functional.
The target in test [24] is Casein kinase I isoform alpha (Homo sapiens, UniProt P48729). The test is classed as functional.
Another test has as its target Activated CDC42 kinase 1 (Homo sapiens, UniProt Q07912). The test is described as follows: Navigating the Kinome. Panel member name: ACK1. The test is classed as functional.
Test [25] addresses T5, cAMP-dependent protein kinase catalytic subunit PRKX (Homo sapiens, UniProt P51817).
T5 sequence (P51817 whole entry): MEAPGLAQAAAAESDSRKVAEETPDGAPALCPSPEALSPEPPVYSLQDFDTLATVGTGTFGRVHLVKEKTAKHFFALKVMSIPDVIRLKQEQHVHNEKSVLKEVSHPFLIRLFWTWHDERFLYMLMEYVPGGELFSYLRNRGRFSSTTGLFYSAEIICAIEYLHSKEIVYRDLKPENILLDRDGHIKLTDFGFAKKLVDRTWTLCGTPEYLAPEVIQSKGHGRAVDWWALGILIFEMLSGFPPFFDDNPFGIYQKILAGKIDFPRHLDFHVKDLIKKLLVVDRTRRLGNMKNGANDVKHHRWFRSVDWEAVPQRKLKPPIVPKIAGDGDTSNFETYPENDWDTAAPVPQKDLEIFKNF
The test is classed as functional.

Test [26] addresses Cyclin-dependent kinase 5 (Homo sapiens, UniProt Q00535). The test is classed as functional.
In test [27] the target is 5'-AMP-activated protein kinase catalytic subunit alpha-1 (Homo sapiens, UniProt Q13131). The test is classed as functional.

Sequence of BDNF/NT-3 growth factors receptor (Q16620 whole entry): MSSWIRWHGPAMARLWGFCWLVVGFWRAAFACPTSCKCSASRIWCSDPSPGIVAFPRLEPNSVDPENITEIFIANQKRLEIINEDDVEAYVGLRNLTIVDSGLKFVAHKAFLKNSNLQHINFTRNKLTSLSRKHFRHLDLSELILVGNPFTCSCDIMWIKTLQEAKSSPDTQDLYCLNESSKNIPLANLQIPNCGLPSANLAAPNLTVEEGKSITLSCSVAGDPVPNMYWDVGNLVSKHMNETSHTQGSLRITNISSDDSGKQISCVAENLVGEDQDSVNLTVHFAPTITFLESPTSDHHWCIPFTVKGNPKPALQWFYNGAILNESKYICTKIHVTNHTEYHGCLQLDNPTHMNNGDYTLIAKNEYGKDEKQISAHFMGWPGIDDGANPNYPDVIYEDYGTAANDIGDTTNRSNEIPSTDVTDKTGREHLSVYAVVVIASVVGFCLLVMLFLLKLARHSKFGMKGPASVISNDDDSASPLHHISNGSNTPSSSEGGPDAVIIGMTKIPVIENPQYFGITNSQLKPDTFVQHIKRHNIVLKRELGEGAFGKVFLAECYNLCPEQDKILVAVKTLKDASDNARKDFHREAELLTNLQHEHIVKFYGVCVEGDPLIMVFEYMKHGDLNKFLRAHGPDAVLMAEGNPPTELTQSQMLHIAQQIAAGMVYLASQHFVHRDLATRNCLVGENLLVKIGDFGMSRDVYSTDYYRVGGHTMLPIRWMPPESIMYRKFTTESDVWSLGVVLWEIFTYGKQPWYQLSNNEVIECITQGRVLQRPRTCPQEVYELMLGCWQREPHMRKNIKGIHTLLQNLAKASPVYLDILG
Sequence of Vascular endothelial growth factor receptor 2 (P35968 whole entry): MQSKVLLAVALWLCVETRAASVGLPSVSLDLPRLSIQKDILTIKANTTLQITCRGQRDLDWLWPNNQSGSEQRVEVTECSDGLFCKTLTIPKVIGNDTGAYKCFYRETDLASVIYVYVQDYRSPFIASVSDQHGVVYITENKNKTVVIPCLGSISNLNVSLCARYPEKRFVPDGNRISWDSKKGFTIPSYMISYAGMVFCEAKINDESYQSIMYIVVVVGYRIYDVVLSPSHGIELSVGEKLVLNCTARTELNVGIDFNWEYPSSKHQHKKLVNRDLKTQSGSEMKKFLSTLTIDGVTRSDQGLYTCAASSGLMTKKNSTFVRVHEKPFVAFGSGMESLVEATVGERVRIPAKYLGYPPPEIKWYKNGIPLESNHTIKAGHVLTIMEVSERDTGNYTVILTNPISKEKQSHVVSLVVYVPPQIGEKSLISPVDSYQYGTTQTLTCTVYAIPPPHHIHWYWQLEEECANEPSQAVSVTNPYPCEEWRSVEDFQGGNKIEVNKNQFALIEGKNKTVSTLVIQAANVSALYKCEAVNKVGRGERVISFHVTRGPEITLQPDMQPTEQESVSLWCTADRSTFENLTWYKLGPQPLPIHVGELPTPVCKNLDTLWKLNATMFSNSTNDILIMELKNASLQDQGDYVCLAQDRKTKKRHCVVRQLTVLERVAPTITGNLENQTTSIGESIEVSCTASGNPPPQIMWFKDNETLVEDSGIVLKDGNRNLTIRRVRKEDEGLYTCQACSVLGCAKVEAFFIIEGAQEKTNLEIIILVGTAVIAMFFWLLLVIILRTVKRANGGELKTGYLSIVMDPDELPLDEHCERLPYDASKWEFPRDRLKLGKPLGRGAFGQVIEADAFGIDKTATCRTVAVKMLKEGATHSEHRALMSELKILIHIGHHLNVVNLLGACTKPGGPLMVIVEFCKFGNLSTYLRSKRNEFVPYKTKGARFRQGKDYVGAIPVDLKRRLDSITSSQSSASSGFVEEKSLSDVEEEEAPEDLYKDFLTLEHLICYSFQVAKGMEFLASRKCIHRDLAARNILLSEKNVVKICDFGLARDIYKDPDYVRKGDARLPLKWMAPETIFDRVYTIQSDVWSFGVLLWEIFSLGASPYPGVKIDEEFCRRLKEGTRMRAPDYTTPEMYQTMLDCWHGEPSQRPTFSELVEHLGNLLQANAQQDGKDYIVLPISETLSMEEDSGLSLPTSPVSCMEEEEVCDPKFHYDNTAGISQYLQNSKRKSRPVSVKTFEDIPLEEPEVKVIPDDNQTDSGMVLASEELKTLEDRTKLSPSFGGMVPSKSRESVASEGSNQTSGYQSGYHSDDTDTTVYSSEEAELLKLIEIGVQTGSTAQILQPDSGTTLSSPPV
Sequence of Melanocortin receptor 4 (P32245 whole entry): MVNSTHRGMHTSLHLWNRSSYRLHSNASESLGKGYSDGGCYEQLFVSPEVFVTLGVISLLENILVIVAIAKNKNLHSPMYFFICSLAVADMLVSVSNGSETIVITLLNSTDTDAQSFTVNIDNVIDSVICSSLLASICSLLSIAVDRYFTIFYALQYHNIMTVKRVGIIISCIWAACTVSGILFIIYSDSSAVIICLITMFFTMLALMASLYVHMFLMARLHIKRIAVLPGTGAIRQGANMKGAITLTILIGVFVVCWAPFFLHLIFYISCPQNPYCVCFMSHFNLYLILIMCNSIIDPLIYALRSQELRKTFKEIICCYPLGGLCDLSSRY
Sequence of Dual specificity protein kinase CLK2 (P49760 whole entry): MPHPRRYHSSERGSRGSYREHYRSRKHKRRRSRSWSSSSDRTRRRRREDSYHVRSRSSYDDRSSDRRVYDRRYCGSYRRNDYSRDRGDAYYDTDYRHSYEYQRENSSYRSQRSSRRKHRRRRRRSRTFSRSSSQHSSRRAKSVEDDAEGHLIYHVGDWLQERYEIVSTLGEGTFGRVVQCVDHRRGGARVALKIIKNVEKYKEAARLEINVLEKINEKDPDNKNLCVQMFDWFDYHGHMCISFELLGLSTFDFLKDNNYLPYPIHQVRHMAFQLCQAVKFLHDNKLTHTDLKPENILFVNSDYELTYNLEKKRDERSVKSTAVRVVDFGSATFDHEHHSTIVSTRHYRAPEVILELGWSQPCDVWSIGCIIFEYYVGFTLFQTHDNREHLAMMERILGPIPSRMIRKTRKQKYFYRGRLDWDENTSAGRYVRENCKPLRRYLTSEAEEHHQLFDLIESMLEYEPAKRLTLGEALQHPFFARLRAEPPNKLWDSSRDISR
Sequence of Cyclin-dependent kinase 9 (P50750 whole entry): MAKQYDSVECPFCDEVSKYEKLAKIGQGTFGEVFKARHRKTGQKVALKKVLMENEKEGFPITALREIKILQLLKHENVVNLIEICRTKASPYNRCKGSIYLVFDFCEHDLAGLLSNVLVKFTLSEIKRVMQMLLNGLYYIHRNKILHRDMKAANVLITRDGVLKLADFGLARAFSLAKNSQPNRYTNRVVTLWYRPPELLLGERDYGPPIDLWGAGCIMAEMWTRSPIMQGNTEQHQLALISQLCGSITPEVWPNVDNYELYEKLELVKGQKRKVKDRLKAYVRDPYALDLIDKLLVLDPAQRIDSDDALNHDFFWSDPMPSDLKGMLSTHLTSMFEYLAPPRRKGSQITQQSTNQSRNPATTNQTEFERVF
Sequence of Cyclin-dependent kinase 5 (Q00535 whole entry): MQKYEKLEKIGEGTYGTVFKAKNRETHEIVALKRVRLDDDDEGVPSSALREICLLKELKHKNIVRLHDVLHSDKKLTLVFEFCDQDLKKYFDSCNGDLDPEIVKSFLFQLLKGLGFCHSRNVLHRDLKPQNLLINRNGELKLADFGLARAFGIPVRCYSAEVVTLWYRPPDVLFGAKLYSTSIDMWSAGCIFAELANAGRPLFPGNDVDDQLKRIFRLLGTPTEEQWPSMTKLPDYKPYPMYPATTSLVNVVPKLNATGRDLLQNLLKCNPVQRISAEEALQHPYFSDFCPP
Sequence of Dual specificity mitogen-activated protein kinase kinase 2 (P36507 whole entry, canonical isoform): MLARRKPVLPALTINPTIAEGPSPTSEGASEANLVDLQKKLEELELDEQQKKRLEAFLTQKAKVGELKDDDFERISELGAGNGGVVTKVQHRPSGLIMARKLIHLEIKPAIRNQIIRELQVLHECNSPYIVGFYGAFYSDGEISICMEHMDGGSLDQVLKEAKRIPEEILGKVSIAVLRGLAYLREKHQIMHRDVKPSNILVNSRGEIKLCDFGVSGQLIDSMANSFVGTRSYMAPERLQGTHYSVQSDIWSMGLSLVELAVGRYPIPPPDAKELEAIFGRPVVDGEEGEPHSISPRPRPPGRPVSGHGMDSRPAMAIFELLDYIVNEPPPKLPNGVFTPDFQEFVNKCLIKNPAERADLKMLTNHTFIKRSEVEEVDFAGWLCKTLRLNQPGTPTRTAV
Sequence of Dual specificity tyrosine-phosphorylation-regulated kinase 1B (Q9Y463 whole entry): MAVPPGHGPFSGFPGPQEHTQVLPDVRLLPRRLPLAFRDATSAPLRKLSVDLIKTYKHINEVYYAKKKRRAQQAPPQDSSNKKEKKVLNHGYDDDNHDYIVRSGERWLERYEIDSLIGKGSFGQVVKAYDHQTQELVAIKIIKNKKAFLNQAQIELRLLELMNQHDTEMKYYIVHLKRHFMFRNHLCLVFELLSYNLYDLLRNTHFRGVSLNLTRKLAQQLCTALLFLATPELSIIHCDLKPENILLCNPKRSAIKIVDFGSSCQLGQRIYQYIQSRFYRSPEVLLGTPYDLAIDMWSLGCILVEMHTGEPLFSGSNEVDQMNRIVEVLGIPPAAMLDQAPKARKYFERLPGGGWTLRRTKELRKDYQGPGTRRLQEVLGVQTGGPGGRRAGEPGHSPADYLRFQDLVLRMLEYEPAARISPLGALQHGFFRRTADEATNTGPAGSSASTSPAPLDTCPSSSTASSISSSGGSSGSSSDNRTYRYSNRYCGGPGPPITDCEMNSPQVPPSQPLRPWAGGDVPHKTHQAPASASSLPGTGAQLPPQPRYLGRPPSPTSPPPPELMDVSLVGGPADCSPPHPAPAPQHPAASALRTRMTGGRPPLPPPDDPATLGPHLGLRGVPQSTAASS

On to `COC(=O)CSc1nnc(-c2ccc(S(=O)(=O)NCc3ccccc3Cl)cc2)o1`, for which the IC50 (in [1]; at Melanocortin receptor 4) was > 64.6 µM (inactive) throughout.

As to `CS(=O)(=O)c1ccc(N)c(SSc2cc(S(C)(=O)=O)ccc2N)c1`, the concentration for half-maximal inhibition (IC50) in [2] was > 55.7 µM (not active); on Large T antigen, 13 µM (active); at Insulin-degrading enzyme it was 7.08 µM (active); in test [4], 23.9 µM (inactive). Moreover, in test [3], the EC50 was > 104 µM (inactive).

As for `O=C(Oc1cccc(C(=S)N2CCOCC2)c1)c1ccc([N+](=O)[O-])cc1[N+](=O)[O-]`, the IC50 (in test [1]; at Melanocortin receptor 4) was > 64.6 µM (inactive) throughout.

`COc1ccc(-c2cc(C(=O)N3CC(C)CC(C)C3)c3ccccc3n2)cc1OC` (centres undefined): the IC50 in [5] is 1.51 µM (active).

For the molecule `O=C1NCc2ccc(-c3ccccc3)cc21`, the Ki in test [6] was > 79.4 µM (inactive); in [7], > 50.1 µM (inactive); in [8], > 100 µM (inactive); in [9], 79.4 µM (active); in [10], 1.58 µM (active); in test [11], > 100 µM (inactive). In addition, the Ki in test [12] was > 79.4 µM (inactive); at Aurora kinase A it was > 63.1 µM (inactive); in test [13], > 100 µM (inactive); in test [14] it was 25.1 µM (active); in test [15] it was > 100 µM (inactive); in [16], > 63.1 µM (inactive). Further, the Ki in [17] was 100 µM (active).

Regarding `CN(C)CC1CCn2cc(c3ccccc32)C2=C(C(=O)NC2=O)c2cn(c3ccccc23)CCO1` (centres undefined), the Ki in test [18] was > 3.16 µM (inactive); in [7], 0.631 µM (active); in test [19], > 2.51 µM (inactive); in test [20], 0.2 µM (active); in test [12], > 2 µM (inactive); on Focal adhesion kinase 1 it was > 6.31 µM (inactive). Further, the Ki in test [21] is > 2.51 µM (inactive); in [22], 0.158 µM (active); in [23], > 3.98 µM (inactive); in [24], > 3.98 µM (inactive); in [14] it was > 3.98 µM (inactive); in test [15], 2 µM (active). Besides, the Ki is > 3.98 µM (inactive) at Activated CDC42 kinase 1, > 3.16 µM (inactive) in [25], > 3.16 µM (inactive) in [26] and > 3.16 µM (inactive) in test [27].
